ChEMBL document CHEMBL2384984, “Multivalent presentation of a hydrolytically stable GM(3) lactone mimetic as modulator of melanoma cells motility and adhesion” (2013)
Active and inactive are the calls of the source. No cut-off for these calls is given here.

Columns and labels:
[1] = system: A-375; assay: Inhibition of human A375 cell adhesion to fibronectin-coated dish at 50 uM incubated for 30 mins measured after 1 to 4 hrs by crystal violet staining-based method relative to control; assay type: functional
[2] = system: A-375; assay: Cytotoxicity against human A375 cells at 10 to 50 uM after 24 hrs by crystal-violet staining-based method; assay type: functional, cell-based
[3] = system: A-375; assay: Induction of anoikis in human A375 cells at 50 uM after 24 hrs by FITC-labeled Annexin V-propidium iodide staining-based FACS flow cytometric analysis (reference value: 15%); assay type: functional
[4] = system: A-375; assay: Inhibition of serum-starved human A375 cell migration at 50 uM after 24 hrs relative to control; assay type: functional; conditions: A-375, 24 h
[5] = biological target: RAC-alpha serine/threonine-protein kinase (Homo sapiens) (UniProt P31749); assay: Inhibition of AKT phosphorylation in human A375 cells at 50 uM after 24 hrs by Western blotting analysis; assay type: cell-based; conditions: A-375
Chain of RAC-alpha serine/threonine-protein kinase (Homo sapiens) (P31749 whole entry): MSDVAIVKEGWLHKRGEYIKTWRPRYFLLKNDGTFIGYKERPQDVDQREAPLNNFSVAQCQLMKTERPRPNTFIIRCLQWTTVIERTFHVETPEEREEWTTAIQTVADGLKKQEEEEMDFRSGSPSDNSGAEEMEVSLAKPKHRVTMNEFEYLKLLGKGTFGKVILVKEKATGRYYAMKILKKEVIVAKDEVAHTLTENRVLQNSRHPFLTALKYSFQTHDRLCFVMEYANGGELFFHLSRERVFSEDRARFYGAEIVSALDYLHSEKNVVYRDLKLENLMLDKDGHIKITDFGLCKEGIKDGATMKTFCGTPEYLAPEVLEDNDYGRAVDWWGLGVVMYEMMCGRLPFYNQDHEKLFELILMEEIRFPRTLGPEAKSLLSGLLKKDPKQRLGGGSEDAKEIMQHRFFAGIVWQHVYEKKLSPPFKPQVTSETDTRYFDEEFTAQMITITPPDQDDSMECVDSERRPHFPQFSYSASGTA

inhibition [5]	SMILES	inhibition [1]	Activity [2]	Activity [3] [%]	inhibition at 50 µM [4] [%]	inhibition at 50 µM [1] [%]
–	CO[C@H]1O[C@H](CO)[C@H](O)C2=C1SC[C@]1(C[C@H](O)[C@H](O)[C@H]([C@H](O)CO)O1)O2	inactive	inactive	–	–	–
–	O=C(CCCCC(=O)NCCNC(=O)CCN(CCC(=O)NCCNC(=O)CCCCC(=O)NCCCCCCO[C@H]1O[C@H](CO)[C@H](O)C2=C1SC[C@]1(C[C@@H](O)[C@@H](O)[C@@H]([C@H](O)CO)O1)O2)CCN(CCC(=O)NCCNC(=O)CCCCC(=O)NCCCCCCO[C@H]1O[C@H](CO)[C@H](O)C2=C1SC[C@@]1(C[C@@H](O)[C@@H](O)[C@@H]([C@H](O)CO)O1)O2)CCC(=O)NCCNC(=O)CCCCC(=O)NCCCCCCO[C@H]1O[C@H](CO)[C@H](O)C2=C1SC[C@@]1(C[C@@H](O)[C@@H](O)[C@@H]([C@H](O)CO)O1)O2)NCCCCCCO[C@H]1O[C@H](CO)[C@H](O)C2=C1SC[C@]1(C[C@@H](O)[C@@H](O)[C@@H]([C@H](O)CO)O1)O2	inactive	inactive	–	–	–
–	CC(C)(C)OC(=O)NCCN(CCC(=O)NCCNC(=O)CCCCC(=O)NCCCCCCO[C@H]1O[C@H](CO)[C@H](O)C2=C1SC[C@@]1(C[C@@H](O)[C@@H](O)[C@@H]([C@H](O)CO)O1)O2)CCC(=O)NCCNC(=O)CCCCC(=O)NCCCCCCO[C@H]1O[C@H](CO)[C@H](O)C2=C1SC[C@@]1(C[C@@H](O)[C@@H](O)[C@@H]([C@H](O)CO)O1)O2	inactive	inactive	–	–	–
–	CC(C)(C)OC(=O)NCCN(CCC(=O)NCCN)CCC(=O)NCCN	inactive	–	–	–	–
–	CC(=O)OC[C@@H](OC(C)=O)[C@@H]1O[C@@]2(CSC3=C(O2)[C@@H](OC(C)=O)[C@@H](COC(C)=O)O[C@@H]3OCCCCCCNC(=O)CCCCC(=O)Oc2ccc([N+](=O)[O-])cc2)C[C@H](OC(C)=O)[C@@H]1OC(C)=O	inactive	–	–	–	–
Active	CCCOc1c2cc(CCCn3cc(CCO[C@H]4O[C@H](CO)[C@H](O)C5=C4SC[C@]4(C[C@@H](O)[C@@H](O)[C@@H]([C@H](O)CO)O4)O5)nn3)cc1Cc1cc(CCCn3cc(CCO[C@H]4O[C@H](CO)[C@H](O)C5=C4SC[C@]4(C[C@@H](O)[C@@H](O)[C@@H]([C@H](O)CO)O4)O5)nn3)cc(c1OCCC)Cc1cc(CCCn3cc(CCO[C@H]4O[C@H](CO)[C@H](O)C5=C4SC[C@]4(C[C@@H](O)[C@@H](O)[C@@H]([C@H](O)CO)O4)O5)nn3)cc(c1OCCC)Cc1cc(CCCn3cc(CCO[C@H]4O[C@H](CO)[C@H](O)C5=C4SC[C@]4(C[C@@H](O)[C@@H](O)[C@@H]([C@H](O)CO)O4)O5)nn3)cc(c1OCCC)C2	–	inactive	32	60	33
